Here are results for two molecules from patent publication US11028066B2, “Inhibitors of lysine specific demethylase-1” (CELGENE QUANTICEL RESEARCH, INC., priority 2014, dated 2021).

Test [1] addresses full-length human LSD1 (Homo sapiens (Human), UniProt O60341). In words: In vitro enzyme inhibition assay LSD-1 (TR-FRET). The format is biochemical. As to conditions: H3K4me1-biotin peptide. In outline:
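Demethylase activity of full-length human LSD1 was detected by TR-FRET after 1 hour incubation at room temperature. Excitation was at 320 nm, with emission at 615 nm and 665 nm. IC50 values were derived from the inhibition data.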
Background: In TR-FRET formats the signal depends on donor and acceptor labels being close together.

Test [2] deals with THP-1 (AML) cells. In words: LSD1 CD11b cellular assay (flow cytometry). The format is cell-based. As to conditions: Homo sapiens, THP-1, 96 h; CD11b expressing cells, 4 days incubation. For orientation: Flow cytometry measures light scatter and fluorescence of single cells or particles in a stream.
Test [3] concerns Kasumi-1. The experiment in a line: Kasumi-1 AML cell line proliferation assay (Cell-MTS assay). The format is cell-based. As to conditions: Homo sapiens, 168 hours incubation. From the text:
Colorimetric cellular assay to assess the ability of LSD-1 small molecule inhibitors to effect the proliferation of the established AML cancer cell line Kasumi-1.
This Cell-MTS assay is a 7-day plate based colorimetric assay which quantifies the amount of newly generated NADH in the presence and absence of test compound. These NADH levels are used as a proxy for the quantification of cancer cell proliferation.
The established cancer cell line Kasumi-1 with a verified p53 mutation were purchased from American Type Culture Collection (ATCC) and routinely passaged according to ATCC published protocols. For routine assay these cells were seeded at a density of 20,000 cells per 96-well. 24 hours after plating, cells received an 11 point dilution of test compound with final concentration ranges from 100 μM to 2.0 nM. Cells are incubated in the presence of compound for 168 hours at 37° C., 5% CO2. At the end of this compound incubation period, 80 μl of media is removed and 20 μL of CellTiter 96® AQueous Non-Radioactive Cell Proliferation Assay solution (Promega) is added. The cells are incubated until the OD490 is >0.6. IC50 values are calculated using the IDBS XLfit software package and include background subtracted OD490 values and normalization to DMSO controls.
Table 5 provides the Kasumi-1 cellular IC50 values of various substituted heterocyclic compounds disclosed herein.

Each structure is given as a SMILES string.

For the molecule `COc1ccc(-c2c(-c3ccc(C#N)c(F)c3)cc(N3CCC(N)CC3)c(=O)n2C)cc1F` [Example 84, 4-[5-(4-aminopiperidin-1-yl)-2-(3-fluoro-4-methoxyphenyl)-1-methyl-6-oxopyridin-3-yl]-2-fluorobenzonitrile], the IC50 in test [1] is less than 100 nM; in test [2] it was less than 100 nM; in test [3], not above 100 nM.

As for `CN(C)c1ccc(-c2c(-c3ccc(C#N)c(F)c3)cc(N3CCC(N)CC3)c(=O)n2C)cn1` [Example 91, 4-{5-(4-aminopiperidyl)-2-[6-(dimethylamino)(3-pyridyl)]-1-methyl-6-oxo(3-hydropyridyl)}-2-fluorobenzenecarbonitrile], the IC50 was less than 100 nM in test [1], less than 100 nM in test [2] and not above 100 nM in test [3].

In general, IC50 refers to the concentration that inhibits the measured activity by half. High values mean a need for much substance, low ones inhibition by little substance.
